In patent US9175011B2, “Morpholino substituted urea or carbamate derivatives as MTOR inhibitors” (CELLZOME LIMITED, priority 2011, dated 2015):

Tests used:
[1] = biological target: T1, PI3K alpha (PI3Kα) (Homo sapiens, UniProt P42336); assay: kinobeads assay, PI3K alpha; format: binding; details: Jurkat cell lysate, read-out: Inhibition values (IC50) PI3Ka
T1 construct: Jurkat cells were homogenized in a Potter S homogenizer in lysis buffer; endogenous in cells; host or cells: Jurkat, clone E6-1 (ATCC TIB-152) lysate
Protocol: (§1) The compounds of the present invention as described were tested in the mTOR kinobeads assay as described below. Briefly, test compounds (at various concentrations) and the affinity matrix (1:1 mixture of beads with immobilized phenylthiazole ligand 1 and beads with immobilized phenylmorpholin-chromen ligand; WO 2009/098021) were added to cell lysate aliquots and allowed to bind to the proteins in the lysate sample. After the incubation time the beads with captured proteins were separated from the lysate. Bound proteins were then eluted and the presence of mTOR, PI3K alpha (PI3Kα), PI3K beta (PI3Kb), PI3K gamma (PI3Kg), PI3K delta (PI3Kd) and DNA-dependent protein kinase (DNA-PK) was detected and quantified using a specific antibody in a dot blot procedure and the Odyssey infrared detection system. Dose response curves for individual kinases were generated and IC50 values calculated. Kinobeads assays for PI3 kinases (WO-A 2008/015013) and for kinase selectivity profiling (WO 2009/098021) have been previously described.
(§2) The affinity matrix (beads with immobilized phenylmorpholin-chromen ligand) was washed three times with 15 ml of 1×DP buffer containing 0.2% NP40 (IGEPAL® CA-630, Sigma, #13021) and then resuspended in 5.5 ml of 1×DP buffer containing 0.2% NP40 (10% beads slurry).
(§3) 5×DP buffer: 250 mM Tris-HCl pH 7.4, 25% Glycerol, 7.5 mM MgCl2, 750 mM NaCl, 5 mM Na3VO4, filter the 5×-lysis buffer through 0.22 μm filter and store in aliquots at −80° C. The 5×DP buffer is diluted to 1×DP buffer containing 1 mM DTT and 25 mM NaF.
(§4) Stock solutions of test compounds were prepared in DMSO. In a 96 well plate 30 μl solution of diluted test compounds at 5 mM in DMSO were prepared. Starting with this solution a 1:3 dilution series (9 steps) was prepared. For control experiments (no test compound) a buffer containing 2% DMSO was used. Compound PI-103 served as a positive control (Calbiochem catalogue number 528100).
(§5) Jurkat cells (ATCC catalogue number TIB-152 Jurkat, clone E6-1) were grown in 1 liter Spinner flasks (Integra Biosciences, #182101) in suspension in RPMI 1640 medium (Invitrogen, #21875-034) supplemented with 10% Fetal Bovine Serum (Invitrogen) at a density between 0.15×10^6 and 1.2×10^6 cells/ml. Cells were harvested by centrifugation, washed once with 1×PBS buffer (Invitrogen, #14190-094) and cell pellets were frozen in liquid nitrogen and subsequently stored at −80° C.
(§6) Jurkat cells were homogenized in a Potter S homogenizer in lysis buffer: 50 mM Tris-HCl, 0.8% NP40, 5% glycerol, 150 mM NaCl, 1.5 mM MgCl2, 25 mM NaF, 1 mM sodium vanadate, 1 mM DTT, pH 7.5. One complete EDTA-free tablet (protease inhibitor cocktail, Roche Diagnostics, 1873580) per 25 ml buffer was added. The material was dounced 10 times using a mechanized POTTER S, transferred to 50 ml falcon tubes, incubated for 30 minutes on ice and spun down for 10 min at 20,000 g at 4° C. (10,000 rpm in Sorvall SLA600, precooled). The supernatant was transferred to an ultracentrifuge (UZ)-polycarbonate tube (Beckmann, 355654) and spun for 1 hour at 100.000 g at 4° C. (33.500 rpm in Ti50.2, precooled). The supernatant was transferred again to a fresh 50 ml falcon tube, the protein concentration was determined by a Bradford assay (BioRad) and samples containing 50 mg of protein per aliquot were prepared. The samples were immediately used for experiments or frozen in liquid nitrogen and stored frozen at −80° C.
(§7) Jurkat cell lysate (approximately 50 mg protein per plate) was thawed in a water bath at room temperature and then kept on ice. To the thawed cell lysate 1×DP 0.8% NP40 buffer containing protease inhibitors (1 tablet for 25 ml buffer; EDTA-free protease inhibitor cocktail; Roche Diagnostics 1873580) was added in order to reach a final protein concentration of 5 mg/ml total protein. The diluted cell lysate was stored on ice. […]

[2] = system: S6RP serine-240/244 phosphorylation; assay: In vitro phospho-S6 cellular assay (HEK293T/17); format: cell-based; details: Homo sapiens; HEK293T/17 cells, 2 hours, pS6RP Ser240/244; read-out: Inhibition values (IC50) pS6
Description: Activation of mTOR signaling results in phosphorylation of several downstream targets. In cells, mTOR exists in two different protein complexes. The mTOR Complex-1 (mTORC1) phosphorylates and activates S6 Kinase 1 (S6K1) and S6 Kinase 2 (S6K2) (also known as p70S6K) which then phosphorylate S6 Ribosomal Protein (S6RP) (also known as RPS6)3. S6RP is phosphorylated on serine 235, senile 236, serine 240 and serine 244 by both pS6K1 and pS6K2. The mTOR Complex-2 (mTORC2) phosphorylates AKT on serine 473 which activates the AKT signaling pathway.
The assay measures a test compound's inhibition of S6RP serine-240/244 phosphorylation and inhibition of Akt serine-473 phosphorylation in human embryonic kidney derived HEK293T/17 cells (ATCC CRL-11268).
The HEK293T/17 cell line is maintained in DMEM media (Invitrogen catalogue number 41965-039) supplemented with 10% FCS at 37° C. in a 5% CO2 humidified incubator. Cells are seeded in 96-well plates at 40,000 cells/well (pS6RP S240/244 assay) or 80,000 cells/well (pAkt 5473 assay) in 90 μl growth media (DMEM, 2% FCS). Plates are incubated for 1 hour in a humidified incubator to allow the cells to adhere. Cells are treated with 8 concentrations of test compounds or DMSO alone for controls (final DMSO concentration 0.1%) and incubated at 37° C. for 2 hours. Then 20 μl of 5× concentrated lysis buffer (750 mM NaCl, 100 mM Tris pH7.4, 5 mM ADTA, 5 mM EGTA, 5% Triton X-100) is added, plates are sealed and incubated for 15 minutes at 4° C. with gentle shaking After cell lysis, 25 μl cell lysate is transferred to a MesoScale plate coated with an antibody to pS6RP Ser240/244 (MesoScale Discovery K150DGD-3) or an antibody to pAkt Ser 473 (MesoScale Discovery K151DGD-3). Plates have been blocked before by incubation with 150 μl MesoScale Discovery Blocking Solution-A for 1 hour at room temperature followed by washing with 150 μl 1×Tris wash buffer per well. After the transfer of the cell lysate to the MSD plate, the pS6RP (or pAkt) protein is captured on the coated antibody by incubation at room temperature for 1 hour with gentle shaking. After the capture step the plate is washed three times with 150 μl of 1× Tris wash buffer per well. Then 25 μl detection antibody conjugated with a Sulfo-Tag is added and incubated for 1 hour at room temperature with gentle shaking. Subsequently the antibody solution is removed and the plate is washed 3 times with 150 μl 1×Tris wash buffer per well and 150 μl Read buffer is added. The plates are analysed on a MSD 2400 Plate Reader (MesoScale Discovery). Data analysis is performed using nonlinear regression for a sigmoidal dose-response with a variable slope.

[3] = biological target: T2, DNA-dependent protein kinase (DNA-PK) (Homo sapiens, UniProt P78527); assay: kinobeads assay, DNA-PK; format: binding; details: Jurkat cell lysate, read-out: Inhibition values (IC50) DNA-PK
T2 construct: Jurkat cells were homogenized in a Potter S homogenizer in lysis buffer; endogenous in cells; host or cells: Jurkat, clone E6-1 (ATCC TIB-152) lysate
T2 sequence (P78527 whole entry): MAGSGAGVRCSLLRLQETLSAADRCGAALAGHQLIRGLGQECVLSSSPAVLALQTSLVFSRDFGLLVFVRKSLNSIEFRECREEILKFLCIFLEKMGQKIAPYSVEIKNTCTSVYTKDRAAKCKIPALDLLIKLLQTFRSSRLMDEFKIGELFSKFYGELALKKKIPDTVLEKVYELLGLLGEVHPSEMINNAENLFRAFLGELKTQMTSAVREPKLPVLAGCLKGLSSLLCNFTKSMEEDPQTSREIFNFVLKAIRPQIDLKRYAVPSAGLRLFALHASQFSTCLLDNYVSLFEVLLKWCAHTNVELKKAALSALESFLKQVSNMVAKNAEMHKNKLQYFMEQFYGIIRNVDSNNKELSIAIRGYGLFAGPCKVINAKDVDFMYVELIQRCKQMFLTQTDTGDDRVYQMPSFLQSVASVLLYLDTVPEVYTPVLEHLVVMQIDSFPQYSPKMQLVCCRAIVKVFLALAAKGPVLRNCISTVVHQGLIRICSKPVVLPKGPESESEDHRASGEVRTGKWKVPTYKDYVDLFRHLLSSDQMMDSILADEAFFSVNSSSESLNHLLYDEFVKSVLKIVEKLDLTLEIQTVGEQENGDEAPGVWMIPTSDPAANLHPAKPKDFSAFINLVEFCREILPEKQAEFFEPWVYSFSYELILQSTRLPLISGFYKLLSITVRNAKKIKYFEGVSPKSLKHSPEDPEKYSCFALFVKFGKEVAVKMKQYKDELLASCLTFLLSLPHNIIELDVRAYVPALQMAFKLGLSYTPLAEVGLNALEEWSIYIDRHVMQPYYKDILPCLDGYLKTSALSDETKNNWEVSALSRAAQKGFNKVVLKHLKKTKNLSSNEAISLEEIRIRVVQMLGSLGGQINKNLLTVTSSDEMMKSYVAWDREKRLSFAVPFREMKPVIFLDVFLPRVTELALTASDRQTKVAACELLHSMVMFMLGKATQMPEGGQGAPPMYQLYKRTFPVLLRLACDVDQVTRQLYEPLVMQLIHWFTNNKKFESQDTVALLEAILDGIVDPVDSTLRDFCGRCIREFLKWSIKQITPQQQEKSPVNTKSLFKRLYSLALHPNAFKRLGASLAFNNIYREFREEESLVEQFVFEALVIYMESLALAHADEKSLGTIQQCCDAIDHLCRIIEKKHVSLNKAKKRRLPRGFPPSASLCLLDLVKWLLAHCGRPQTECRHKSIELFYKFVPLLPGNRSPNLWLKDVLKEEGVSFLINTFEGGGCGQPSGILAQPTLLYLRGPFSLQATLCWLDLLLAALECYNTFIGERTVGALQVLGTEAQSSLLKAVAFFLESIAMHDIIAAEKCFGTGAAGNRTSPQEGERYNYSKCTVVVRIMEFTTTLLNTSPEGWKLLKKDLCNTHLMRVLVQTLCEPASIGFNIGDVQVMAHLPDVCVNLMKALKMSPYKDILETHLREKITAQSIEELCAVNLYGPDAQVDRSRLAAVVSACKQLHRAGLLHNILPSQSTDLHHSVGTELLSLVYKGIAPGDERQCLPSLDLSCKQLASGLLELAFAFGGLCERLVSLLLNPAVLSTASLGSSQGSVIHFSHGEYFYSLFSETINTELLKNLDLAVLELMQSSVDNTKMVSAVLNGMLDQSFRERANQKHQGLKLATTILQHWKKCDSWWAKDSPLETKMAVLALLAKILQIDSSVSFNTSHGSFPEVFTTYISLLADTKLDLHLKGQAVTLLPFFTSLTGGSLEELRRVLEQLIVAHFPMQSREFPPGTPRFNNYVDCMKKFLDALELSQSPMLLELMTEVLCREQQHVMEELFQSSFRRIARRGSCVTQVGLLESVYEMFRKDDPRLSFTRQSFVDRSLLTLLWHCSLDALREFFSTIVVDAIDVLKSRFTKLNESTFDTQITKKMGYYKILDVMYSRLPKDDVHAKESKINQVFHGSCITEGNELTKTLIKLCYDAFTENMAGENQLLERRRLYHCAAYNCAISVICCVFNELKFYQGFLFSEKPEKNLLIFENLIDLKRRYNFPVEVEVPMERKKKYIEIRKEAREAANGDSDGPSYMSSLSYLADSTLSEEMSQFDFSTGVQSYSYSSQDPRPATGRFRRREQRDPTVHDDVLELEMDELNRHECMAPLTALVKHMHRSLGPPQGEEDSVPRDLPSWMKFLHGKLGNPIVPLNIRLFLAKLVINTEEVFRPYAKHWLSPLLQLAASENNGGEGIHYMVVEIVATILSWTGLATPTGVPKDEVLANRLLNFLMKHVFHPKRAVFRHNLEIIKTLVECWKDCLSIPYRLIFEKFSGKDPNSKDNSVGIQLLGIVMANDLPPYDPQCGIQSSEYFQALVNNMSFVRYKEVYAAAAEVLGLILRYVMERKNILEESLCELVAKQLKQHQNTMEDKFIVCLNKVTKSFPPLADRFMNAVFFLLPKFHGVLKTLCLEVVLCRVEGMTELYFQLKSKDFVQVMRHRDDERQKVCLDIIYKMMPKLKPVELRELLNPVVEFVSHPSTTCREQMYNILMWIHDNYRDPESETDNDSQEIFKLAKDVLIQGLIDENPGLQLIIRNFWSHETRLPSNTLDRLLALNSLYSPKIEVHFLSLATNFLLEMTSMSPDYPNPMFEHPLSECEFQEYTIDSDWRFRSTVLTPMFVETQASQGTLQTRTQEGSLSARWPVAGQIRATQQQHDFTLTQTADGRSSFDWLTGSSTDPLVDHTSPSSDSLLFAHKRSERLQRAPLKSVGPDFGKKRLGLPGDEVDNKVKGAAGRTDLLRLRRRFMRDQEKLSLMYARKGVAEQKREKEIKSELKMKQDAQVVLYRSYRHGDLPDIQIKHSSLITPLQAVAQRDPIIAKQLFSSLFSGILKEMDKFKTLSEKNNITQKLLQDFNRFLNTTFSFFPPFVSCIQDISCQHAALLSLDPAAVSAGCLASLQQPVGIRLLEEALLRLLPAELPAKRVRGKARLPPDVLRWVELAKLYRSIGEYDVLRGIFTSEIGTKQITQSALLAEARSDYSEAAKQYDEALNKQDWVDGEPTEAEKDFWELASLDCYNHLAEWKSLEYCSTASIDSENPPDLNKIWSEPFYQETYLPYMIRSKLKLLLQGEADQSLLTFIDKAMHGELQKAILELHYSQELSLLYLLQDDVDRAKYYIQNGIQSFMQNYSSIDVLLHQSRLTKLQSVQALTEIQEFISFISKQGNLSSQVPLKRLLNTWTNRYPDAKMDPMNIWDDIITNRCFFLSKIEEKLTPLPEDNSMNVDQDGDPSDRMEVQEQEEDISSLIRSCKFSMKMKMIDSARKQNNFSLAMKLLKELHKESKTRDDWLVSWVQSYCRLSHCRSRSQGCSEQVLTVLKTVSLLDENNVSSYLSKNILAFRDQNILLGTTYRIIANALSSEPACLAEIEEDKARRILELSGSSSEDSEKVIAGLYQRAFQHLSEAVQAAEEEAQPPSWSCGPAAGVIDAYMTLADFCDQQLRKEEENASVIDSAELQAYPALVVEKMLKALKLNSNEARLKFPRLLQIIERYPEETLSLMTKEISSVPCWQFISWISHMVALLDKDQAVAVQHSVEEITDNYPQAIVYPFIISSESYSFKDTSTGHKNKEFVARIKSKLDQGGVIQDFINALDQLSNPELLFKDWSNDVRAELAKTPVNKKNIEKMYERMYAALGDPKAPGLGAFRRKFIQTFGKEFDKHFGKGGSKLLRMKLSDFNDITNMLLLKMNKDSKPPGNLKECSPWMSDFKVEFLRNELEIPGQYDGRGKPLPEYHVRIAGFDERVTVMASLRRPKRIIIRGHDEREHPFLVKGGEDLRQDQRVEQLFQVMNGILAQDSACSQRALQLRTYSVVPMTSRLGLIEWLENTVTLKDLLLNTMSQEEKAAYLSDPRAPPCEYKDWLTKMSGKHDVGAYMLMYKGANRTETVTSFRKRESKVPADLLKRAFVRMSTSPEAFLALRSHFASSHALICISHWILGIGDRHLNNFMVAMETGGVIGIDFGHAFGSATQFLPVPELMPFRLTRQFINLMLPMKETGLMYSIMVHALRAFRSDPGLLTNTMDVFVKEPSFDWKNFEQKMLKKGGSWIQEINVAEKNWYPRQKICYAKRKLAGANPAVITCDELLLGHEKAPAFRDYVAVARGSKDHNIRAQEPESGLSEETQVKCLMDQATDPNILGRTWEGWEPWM
Protocol: as §1, §2, §3, §4, §5, §6, §7

[4] = biological target: T3, PI3K gamma (PI3Kg) (Homo sapiens, UniProt P48736); assay: kinobeads assay, PI3K gamma; format: binding; details: Jurkat cell lysate, read-out: Inhibition values (IC50) PI3Kg
T3 construct: Jurkat cells were homogenized in a Potter S homogenizer in lysis buffer; endogenous in cells; host or cells: Jurkat, clone E6-1 (ATCC TIB-152) lysate
Protocol: as §1, §2, §3, §4, §5, §6, §7

[5] = biological target: T4, mTOR (Homo sapiens, UniProt P42345); assay: mTOR kinobeads assay (Jurkat cell lysate, dot blot detection); format: binding; details: read-out: Inhibition values (IC50) mTor
T4 construct: Jurkat cells were homogenized in a Potter S homogenizer in lysis buffer; endogenous in cells; host or cells: Jurkat, clone E6-1 (ATCC TIB-152) lysate
Protocol: as §1, §2, §3, §4, §5, §6, §7

[6] = biological target: T5, PI3K delta (PI3Kd) (Homo sapiens, UniProt O00329); assay: kinobeads assay, PI3K delta; format: binding; details: Jurkat cell lysate, read-out: Inhibition values (IC50) PI3Kd
T5 construct: Jurkat cells were homogenized in a Potter S homogenizer in lysis buffer; endogenous in cells; host or cells: Jurkat, clone E6-1 (ATCC TIB-152) lysate
Protocol: as §1, §2, §3, §4, §5, §6, §7

[7] = biological target: T6, PI3K beta (PI3Kb) (Homo sapiens, UniProt P42338); assay: kinobeads assay, PI3K beta; format: binding; details: Jurkat cell lysate, read-out: Inhibition values (IC50) PI3Kb
T6 construct: Jurkat cells were homogenized in a Potter S homogenizer in lysis buffer; endogenous in cells; host or cells: Jurkat, clone E6-1 (ATCC TIB-152) lysate
Protocol: as §1, §2, §3, §4, §5, §6, §7

Compound | IC50 [1] [µM] | IC50 [2] [µM] | IC50 [3] [µM] | IC50 [4] [µM] | IC50 [5] [µM] | IC50 [6] [µM] | IC50 [7] [µM]
CS(=O)(=O)c1ccccc1-c1nc(-c2ccc(NC(=O)NC3CC3)cc2)nc(N2C3CCC2COC3)n1 [Example 16, 1-(4-(4-(3-oxa-8-azabicyclo[3.2.1]octan-8-yl)-6-(2-(methylsulfonyl)phenyl)-1,3,5-triazin-2-yl)phenyl)-3-cyclopropylurea] | > 10 | < 0.1 | > 10 | > 10 | 0.1 to 1 | > 10 | > 10
CCCNC(=O)Nc1ccc(-c2nc(-c3ccccc3S(C)(=O)=O)nc(N3CCOC[C@@H]3C)n2)cc1 [Example 18, (S)-1-(4-(4-(3-methylmorpholino)-6-(2-(methylsulfonyl)phenyl)-1,3,5-triazin-2-yl)phenyl)-3-propylurea] | > 10 | < 0.1 | > 10 | > 10 | 0.1 to 1 | > 10 | > 10
CC(C)CNC(=O)Nc1ccc(-c2nc(-c3ccccc3S(C)(=O)=O)nc(N3CCOC[C@@H]3C)n2)cc1 [Example 19, (S)-1-isobutyl-3-(4-(4-(3-methylmorpholino)-6-(2-(methylsulfonyl)phenyl)-1,3,5-triazin-2-yl)phenyl)urea] | > 10 | 0.1 to 1 | > 10 | > 10 | 1 to 10 | > 10 | > 10
CS(=O)(=O)c1ccccc1-c1nc(-c2ccc(NC(=O)NC3CC3)cc2)nc(N2CCCOCC2)n1 [Example 21, 1-cyclopropyl-3-(4-(4-(2-(methylsulfonyl)phenyl)-6-(1,4-oxazepan-4-yl)-1,3,5-triazin-2-yl)phenyl)urea] | > 10 | 0.1 to 1 | > 10 | > 10 | 0.1 to 1 | > 10 | > 10
CC1(C)COCCN1c1nc(-c2ccc(NC(=O)NC3CC3)cc2)nc(-c2ccccc2S(C)(=O)=O)n1 [Example 22, 1-cyclopropyl-3-(4-(4-(3,3-dimethylmorpholino)-6-(2-(methylsulfonyl)phenyl)-1,3,5-triazin-2-yl)phenyl)urea] | > 10 | < 0.1 | > 10 | > 10 | 0.1 to 1 | > 10 | > 10
C[C@H]1COCCN1c1nc(-c2ccc(NC(=O)Nc3ccc(CO)cc3)cc2)nc(-c2ccccc2S(C)(=O)=O)n1 [Example 25, (S)-1-(4-(hydroxymethyl)phenyl)-3-(4-(4-(3-methylmorpholino)-6-(2-(methylsulfonyl)phenyl)-1,3,5-triazin-2-yl)phenyl)urea] | > 10 | < 0.1 | > 10 | > 10 | 0.1 to 1 | > 10 | > 10
C[C@H]1COCCN1c1nc(-c2ccc(NC(=O)NC3CC3)cc2)nc(-c2ccccc2S(=O)(=O)N2CCCC2)n1 [Example 26, (S)-1-cyclopropyl-3-(4-(4-(3-methylmorpholino)-6-(2-(pyrrolidin-1-ylsulfonyl)phenyl)-1,3,5-triazin-2-yl)phenyl)urea] | > 10 | < 0.1 | > 10 | > 10 | 0.1 to 1 | > 10 | > 10

Second part, the molecule after the results:

IC50 [1] [µM] | IC50 [2] [µM] | IC50 [3] [µM] | IC50 [4] [µM] | IC50 [5] [µM] | IC50 [6] [µM] | IC50 [7] [µM] | Compound
> 10 | < 0.1 | > 10 | > 10 | 0.1 to 1 | > 10 | > 10 | CCS(=O)(=O)c1ccccc1-c1nc(-c2ccc(NC(=O)NC3CC3)cc2)nc(N2CCOC[C@@H]2C)n1 [Example 17, (S)-1-cyclopropyl-3-(4-(4-(2-(ethylsulfonyl)phenyl)-6-(3-methylmorpholino)-1,3,5-triazin-2-yl)phenyl)urea]
1 to 10 | < 0.1 | 1 to 10 | > 10 | 0.1 to 1 | > 10 | 1 to 10 | C[C@H]1COCCN1c1nc(-c2ccc(NC(=O)NC3CCCC3)cc2)nc(-c2ccccc2S(C)(=O)=O)n1 [Example 20, (S)-1-cyclopentyl-3-(4-(4-(3-methylmorpholino)-6-(2-(methylsulfonyl)phenyl)-1,3,5-triazin-2-yl)phenyl)urea]
> 10 | < 0.1 | > 10 | > 10 | 0.1 to 1 | > 10 | > 10 | C[C@H]1COCCN1c1nc(-c2ccc(NC(=O)NC3CCC3)cc2)nc(-c2ccccc2S(C)(=O)=O)n1 [Example 27, (S)-1-cyclobutyl-3-(4-(4-(3-methylmorpholino)-6-(2-(methylsulfonyl)phenyl)-1,3,5-triazin-2-yl)phenyl)urea]
